Experimental data: patent US6849637B2, “Triazolo compounds as MMP inhibitors” (Warner-Lambert Company, priority 2001, dated 2005)

Test system: not given
Settings: not given
For `COC(=O)c1ccc(Cn2c(=O)c3cc(C(=O)NCc4ccncc4)ccc3n3cnnc23)cc1` [Example 12, Methyl 4-{7-[(pyridin-4-ylmethyl)-carbamoyl]-5-oxo-5H-[1,2,4]triazolo[4,3-a]quinazol-4-ylmethyl}benzoate], the melting point was 235 °C. `O=C(O)c1ccc(Cn2c(=O)c3cc(C(=O)NCc4ccc(F)cc4)ccc3n3cnnc23)cc1` [Example 24, 4-{7-[(4-Fluoro)-benzylcarbamoyl]-5-oxo-5H-[1,2,4]triazolo[4,3-a]quinazol-4-ylmethyl}benzoic acid] gave a melting point of 303 °C. Work on `COC(=O)c1ccc(Cn2c(=O)c3cc(C(=O)NCc4ccc5c(c4)OCO5)ccc3n3cnnc23)cc1` [Example 10, Methyl 4-{7-[(1,3-benzodioxol-5-ylmethyl)-carbamoyl]-5-oxo-5H-[1,2,4]triazolo[4,3-a]quinazol-4-ylmethyl}benzoate] yielded a melting point of 248 °C. `N#Cc1ccc(Cn2c(=O)c3cc(C(=O)NCc4ccncc4)ccc3n3cnnc23)cc1` [Example 15, N-(pyridin-4-ylmethyl)-4-(4-cyanobenzyl)-5-oxo-4H-[1,2,4]triazolo[4,3-a]quinazol-7-ylcarboxamide] gave a melting point of 300 °C. `COc1ccc(CNC(=O)c2ccc3c(c2)c(=O)n(CCOc2ccc(Cl)cc2)c2nncn32)cc1` [Example 20, 4-[2-(4-Chloro-phenoxy)-ethyl]-5-oxo-4,5-dihydro-[1,2,4]triazolo[4,3-a]quinazoline-7-carboxylic acid 4-methoxy-benzylamide] showed a melting point of 186 °C. In the case of `COC(=O)Cc1ccc(Cn2c(=O)c3cc(C(=O)NCc4ccc(OC)cc4)ccc3n3cnnc23)cc1` [Example 17, Methyl (4-{7-[(4-methoxy)-benzylcarbamoyl]-5-oxo-5H-[1,2,4]triazolo[4,3-a]quinazolin-4-ylmethyl}-phenyl)-acetate], the melting point is reported as 204 °C. `O=C(O)c1ccc(Cn2c(=O)c3cc(C(=O)NCc4ccc5c(c4)OCO5)ccc3n3cnnc23)cc1` [Example 22, 4-{7-[(1,3-Benzodioxol-5-ylmethyl)-carbamoyl]-5-oxo-5H-[1,2,4]triazolo[4,3]quinazol-4-ylmethyl}benzoic acid] showed a melting point of 235 °C. With `CN(C)CCOC(=O)c1ccc(Cn2c(=O)c3cc(C(=O)NCc4ccc(F)cc4)ccc3n3cnnc23)cc1` [Example 13, (2-Dimethylamino-ethyl) 4-[7-(4-fluoro-benzylcarbamoyl)-5-oxo-5H-[1,2,4]triazolo[4,3-a]quinazol-4-ylmethyl]benzoate] the melting point was 175 °C. `O=C(O)Cc1ccc(Cn2c(=O)c3cc(C(=O)NCc4ccc5c(c4)OCO5)ccc3n3cnnc23)cc1` [Example 26, (4-{7-[(1,3-Benzodioxol-5-ylmethyl)-carbamoyl]-5-oxo-5H-[1,2,4]triazolo[4,3-a]quinazolin-4-ylmethyl}-phenyl)-acetic acid] showed a melting point of 232 °C. `COc1ccc(CNC(=O)c2ccc3c(c2)c(=O)n(Cc2ccc(CC(=O)O)cc2)c2nncn32)cc1` [Example 25, (4-{7-[(4-Methoxy)-benzylcarbamoyl]-5-oxo-5H-[1,2,4]triazolo[4,3-a]quinazolin-4-ylmethyl}-phenyl)-acetic acid] gave a melting point of 268 °C. With `COC(=O)c1ccc(Cn2c(=O)c3cc(C(=O)NCc4ccc(OC)cc4)ccc3n3cnnc23)cc1` [Example 11, Methyl 4-{7-[(4-methoxybenzyl)-carbamoyl]-5-oxo-5H-[1,2,4]triazolo[4,3-a]quinazol-4-ylmethyl}benzoate] the melting point was 210 °C. In the case of `O=C(NCc1ccncc1)c1ccc2c(c1)c(=O)n(C/C=C/c1ccncc1)c1nncn21` [Example 19, N-(pyridin-4-ylmethyl) 4-[3-(pyridin-4-yl)-2-propen-1-yl]-5-oxo-4H-[1,2,4]triazolo[4,3-a]quinazol-7-ylcarboxamide], the melting point is reported as 250 °C. Compound `O=C(O)c1ccc(Cn2c(=O)c3cc(C(=O)NCc4ccncc4)ccc3n3cnnc23)cc1` [Example 23, 4-{7-[(Pyridin-4-ylmethyl)-carbamoyl]-5-oxo-5H-[1,2,4]triazolo[4,3-a]quinazol-4-ylmethyl}benzoic acid] has a melting point of 255 °C.

Test system: MMP-1, MMP-2, MMP-3, MMP-9 and MMP-13
Settings: prior art compounds, collagenase, gelatinase and stromelysin type MMPs; cited from earlier work
In the case of `CC1(C)SCCN(S(=O)(=O)c2ccc(Oc3ccncc3)cc2)[C@H]1C(=O)NO` [AG-3340], the “inhibition of MMP-1, MMP-2, MMP-3, MMP-9 and MMP-13 (non-selective)” value is listed as “simultaneously inhibit”. For `COc1ccc(S(=O)(=O)N(Cc2cccnc2)[C@@H](C(=O)NO)C(C)C)cc1` [CGS-27.023A], the “inhibition of MMP-1, MMP-2, MMP-3, MMP-9 and MMP-13 (non-selective)” value is listed as “simultaneously inhibit”.
